What was measured:
NS3-NS4 [1] = target: T1, NS3-NS4 (Hepatitis C virus genotype 1a, UniProt P27958); assay: NS3-NS4 activity, IC50 (Example 37, Table 8); format: biochemical
NS3-NS4 [2] = target: T1, NS3-NS4; assay: cell-based; conditions: EC50, NS3-NS4 activity

T1 sequence (P27958 1027-1657): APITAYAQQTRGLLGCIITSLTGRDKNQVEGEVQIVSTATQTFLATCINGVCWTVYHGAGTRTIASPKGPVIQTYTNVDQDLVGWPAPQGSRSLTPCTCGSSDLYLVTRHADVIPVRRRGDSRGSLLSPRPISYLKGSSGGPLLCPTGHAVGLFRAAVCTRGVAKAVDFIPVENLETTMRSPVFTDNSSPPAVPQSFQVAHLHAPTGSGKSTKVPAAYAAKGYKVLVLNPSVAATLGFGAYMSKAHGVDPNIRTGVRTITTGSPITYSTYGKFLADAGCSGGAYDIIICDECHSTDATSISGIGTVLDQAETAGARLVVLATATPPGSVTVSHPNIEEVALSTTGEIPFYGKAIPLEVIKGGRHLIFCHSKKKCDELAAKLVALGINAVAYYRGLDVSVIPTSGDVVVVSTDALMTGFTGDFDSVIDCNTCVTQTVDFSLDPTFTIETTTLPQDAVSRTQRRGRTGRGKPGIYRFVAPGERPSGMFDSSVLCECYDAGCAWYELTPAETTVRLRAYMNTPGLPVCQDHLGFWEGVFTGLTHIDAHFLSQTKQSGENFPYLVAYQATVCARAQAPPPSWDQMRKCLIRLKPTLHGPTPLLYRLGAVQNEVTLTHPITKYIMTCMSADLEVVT
T1 sequence (P27958 1658-1711): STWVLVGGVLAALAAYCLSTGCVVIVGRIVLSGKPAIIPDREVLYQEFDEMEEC

Structure (SMILES)	IC50 (NS3-NS4 [1])	EC50 (NS3-NS4 [2])
CC(C)(C)OC(=O)N[C@H]1CCCCC/C=C\[C@@H]2C[C@@]2(C(=O)NS(=O)(=O)c2ccc(C(F)(F)F)cc2)NC(=O)[C@@H]2C[C@@H](OC(=O)N3Cc4cccc(F)c4C3)CN2C1=O [Compound 347]	< 100 nM	< 100 nM
CC(C)(C)OC(=O)N[C@H]1CCCCC/C=C\[C@@H]2C[C@@]2(C(=O)NS(=O)(=O)c2ccc(Cl)cc2Cl)NC(=O)[C@@H]2C[C@@H](OC(=O)N3Cc4cccc(F)c4C3)CN2C1=O [Compound 348]	< 100 nM	< 100 nM
CC(C)(C)OC(=O)N[C@H]1CCCCC/C=C\[C@@H]2C[C@@]2(C(=O)NS(=O)(=O)c2ccccc2F)NC(=O)[C@@H]2C[C@@H](OC(=O)N3Cc4cccc(F)c4C3)CN2C1=O [Compound 349]	< 100 nM	< 100 nM
CC(C)(C)OC(=O)N[C@H]1CCCCC/C=C\[C@@H]2C[C@@]2(C(=O)NS(=O)(=O)c2cccc(F)c2)NC(=O)[C@@H]2C[C@@H](OC(=O)N3Cc4cccc(F)c4C3)CN2C1=O [Compound 350]	< 100 nM	< 100 nM
CC(C)(C)OC(=O)N[C@H]1CCCCC/C=C\[C@@H]2C[C@@]2(C(=O)NS(=O)(=O)c2ccc(F)cc2)NC(=O)[C@@H]2C[C@@H](OC(=O)N3Cc4cccc(F)c4C3)CN2C1=O [Compound 351]	< 100 nM	< 100 nM
COc1ccc(S(=O)(=O)NC(=O)[C@@]23C[C@H]2/C=C\CCCCC[C@H](NC(=O)OC(C)(C)C)C(=O)N2C[C@H](OC(=O)N4Cc5cccc(F)c5C4)C[C@H]2C(=O)N3)cc1 [Compound 352]	< 100 nM	< 100 nM
CC(C)(C)OC(=O)N[C@H]1CCCCC/C=C\[C@@H]2C[C@@]2(C(=O)NS(=O)(=O)c2cccc(Cl)c2)NC(=O)[C@@H]2C[C@@H](OC(=O)N3Cc4cccc(F)c4C3)CN2C1=O [Compound 353]	< 100 nM	< 100 nM
CC(C)(C)OC(=O)N[C@H]1CCCCC/C=C\[C@@H]2C[C@@]2(C(=O)NS(=O)(=O)c2cc(Cl)c(Cl)s2)NC(=O)[C@@H]2C[C@@H](OC(=O)N3Cc4cccc(F)c4C3)CN2C1=O [Compound 354]	< 100 nM	100 to 1000 nM
Cc1ccc(S(=O)(=O)NC(=O)[C@@]23C[C@H]2/C=C\CCCCC[C@H](NC(=O)OC(C)(C)C)C(=O)N2C[C@H](OC(=O)N4Cc5cccc(F)c5C4)C[C@H]2C(=O)N3)c(C)c1 [Compound 355]	< 100 nM	< 100 nM
CC(C)Oc1ccc(S(=O)(=O)NC(=O)[C@@]23C[C@H]2/C=C\CCCCC[C@H](NC(=O)OC(C)(C)C)C(=O)N2C[C@H](OC(=O)N4Cc5cccc(F)c5C4)C[C@H]2C(=O)N3)cc1 [Compound 356]	< 100 nM	< 100 nM
CC(C)(C)OC(=O)N[C@H]1CCCCC/C=C\[C@@H]2C[C@@]2(C(=O)NS(=O)(=O)c2cc(Cl)sc2Cl)NC(=O)[C@@H]2C[C@@H](OC(=O)N3CCc4ccccc4C3)CN2C1=O [Compound 357]	100 to 1000 nM	100 to 1000 nM
Cc1ccccc1S(=O)(=O)NC(=O)[C@@]12C[C@H]1/C=C\CCCCC[C@H](NC(=O)N(C)C(C)(C)C)C(=O)N1C[C@H](OC(=O)N3Cc4cccc(F)c4C3)C[C@H]1C(=O)N2 [Compound 358]	< 100 nM	< 100 nM
CN(C(=O)N[C@H]1CCCCC/C=C\[C@@H]2C[C@@]2(C(=O)NS(=O)(=O)c2ccccc2Cl)NC(=O)[C@@H]2C[C@@H](OC(=O)N3Cc4cccc(F)c4C3)CN2C1=O)C(C)(C)C [Compound 359]	< 100 nM	< 100 nM
CN(C(=O)N[C@H]1CCCCC/C=C\[C@@H]2C[C@@]2(C(=O)NS(=O)(=O)c2c(Cl)cccc2Cl)NC(=O)[C@@H]2C[C@@H](OC(=O)N3Cc4cccc(F)c4C3)CN2C1=O)C(C)(C)C [Compound 360]	< 100 nM	100 to 1000 nM
CN(C(=O)N[C@H]1CCCCC/C=C\[C@@H]2C[C@@]2(C(=O)NS(=O)(=O)c2ccc(Cl)cc2)NC(=O)[C@@H]2C[C@@H](OC(=O)N3Cc4cccc(F)c4C3)CN2C1=O)C(C)(C)C [Compound 361]	< 100 nM	< 100 nM
CN(C(=O)N[C@H]1CCCCC/C=C\[C@@H]2C[C@@]2(C(=O)NS(=O)(=O)c2c(F)cccc2F)NC(=O)[C@@H]2C[C@@H](OC(=O)N3Cc4cccc(F)c4C3)CN2C1=O)C(C)(C)C [Compound 362]	< 100 nM	100 to 1000 nM
CC(C)(C)OC(=O)N[C@H]1CCCCC/C=C\[C@@H]2C[C@@]2(C(=O)NS(=O)(=O)c2c(F)cccc2F)NC(=O)[C@@H]2C[C@@H](OC(=O)N3CCc4ccccc4C3)CN2C1=O [Compound 363]	< 100 nM	1000 to 10000 nM
CC(C)(C)OC(=O)N[C@H]1CCCCC/C=C\[C@@H]2C[C@@]2(C(=O)NS(=O)(=O)c2c(F)cccc2F)NC(=O)[C@@H]2C[C@@H](OC(=O)N3Cc4ccccc4C3)CN2C1=O [Compound 364]	< 100 nM	100 to 1000 nM
O=C(N[C@H]1CCCCC/C=C\[C@@H]2C[C@@]2(C(=O)NS(=O)(=O)C2CC2)NC(=O)[C@@H]2C[C@@H](OC(=O)N3Cc4cccc(F)c4C3)CN2C1=O)OC1CCOCC1 [Compound 401, (2R,6S,13aS,14aR,16aS,Z)-14a-(cyclopropylsulfonylcarbamoyl)-5,16-dioxo-6-((tetrahydro-2H-pyran-4-yloxy)carbonylamino)-1,2,3,5,6,7,8,9,10,11,13a,14,14a,15,16,16a-hexadecahydrocyclopropa[e]pyrrolo[1,2-a][1,4]diazacyclopentadecin-2-yl 4-fluoroisoindoline-2-carboxylate]	< 100 nM	< 100 nM
O=C(N[C@H]1CCCCC/C=C\[C@@H]2C[C@@]2(C(=O)NS(=O)(=O)C2CC2)NC(=O)[C@@H]2C[C@@H](OC(=O)N3Cc4cccc(Cl)c4C3)CN2C1=O)O[C@@H]1CCOC1 [Compound 402, (2R,6S,13aS,14aR,16aS,Z)-14a-(cyclopropylsulfonylcarbamoyl)5,16-dioxo-6-(((R)-tetrahydrofuran-3-yloxy)carbonylamino)-1,2,3,5,6,7,8,9,10,11,13a,14,14a,15,16,16a-hexadecahydrocyclopropa[e]pyrrolo[1,2-a][1,4]diazacyclopentadecin-2-yl 4-chloroisoindoline-2-carboxylate]	< 100 nM	< 100 nM
O=C1N[C@]2(C(=O)NS(=O)(=O)C3CC3)C[C@H]2/C=C\CCCCC[C@H](NC(=O)C2(C(F)(F)F)CC2)C(=O)N2C[C@H](OC(=O)N3Cc4cccc(F)c4C3)C[C@@H]12 [Compound 403, (2R,6S,13aS,14aR,16aS,Z)-14a-(cyclopropylsulfonylcarbamoyl)-5,16-dioxo-6-(1-(trifluoromethyl)cyclopropanecarboxamido)-1,2,3,5,6,7,8,9,10,11,13a,14,14a,15,16,16a-hexadecahydrocyclopropa[e]pyrrolo[1,2-a][1,4]diazacyclopentadecin-2-yl 4-fluoroisoindoline-2-carboxylate]	< 100 nM	< 100 nM
CC1(OC(=O)N[C@H]2CCCCC/C=C\[C@@H]3C[C@@]3(C(=O)NS(=O)(=O)C3CC3)NC(=O)[C@@H]3C[C@@H](OC(=O)N4Cc5cccc(F)c5C4)CN3C2=O)CC1 [Compound 404, (2R,6S,13aS,14aR,16aS,Z)-14a-(cyclopropylsulfonylcarbamoyl)-6-((1-methylcyclopropoxy)carbonylamino)-5,16-dioxo-1,2,3,5,6,7,8,9,10,11,13a,14,14a,15,16,16a-hexadecahydrocyclopropa[e]pyrrolo[1,2-a][1,4]diazacyclopentadecin-2-yl 4-fluoroisoindoline-2-carboxylate]	< 100 nM	< 100 nM
CCC(C)(C)OC(=O)N[C@H]1CCCCC/C=C\[C@@H]2C[C@@]2(C(=O)NS(=O)(=O)C2CC2)NC(=O)[C@@H]2C[C@@H](OC(=O)N3Cc4cccc(F)c4C3)CN2C1=O [Compound 405, (2R,6S,13aS,14aR,16aS,Z)-14a-(cyclopropylsulfonylcarbamoyl)-5,16-dioxo-6-(tert-pentyloxycarbonylamino)-1,2,3,5,6,7,8,9,10,11,13a,14,14a,15,16,16a-hexadecahydrocyclopropa[e]pyrrolo[1,2-a][1,4]diazacyclopentadecin-2-yl 4-fluoroisoindoline-2-carboxylate]	< 100 nM	< 100 nM
CC(C)(C)COC(=O)N[C@H]1CCCCC/C=C\[C@@H]2C[C@@]2(C(=O)NS(=O)(=O)C2CC2)NC(=O)[C@@H]2C[C@@H](OC(=O)N3Cc4cccc(F)c4C3)CN2C1=O [Compound 406, (2R,6S,13aS,14aR,16aS,Z)-14a-(cyclopropylsulfonylcarbamoyl)-6-(neopentyloxycarbonylamino)-5,16-dioxo-1,2,3,5,6,7,8,9,10,11,13a,14,14a,15,16,16a-hexadecahydrocyclopropa[e]pyrrolo[1,2-a][1,4]diazacyclopentadecin-2-yl 4-fluoroisoindoline-2-carboxylate]	< 100 nM	< 100 nM
CN(C(=O)N[C@H]1CCCCC/C=C\[C@@H]2C[C@@]2(C(=O)NS(=O)(=O)C2CC2)NC(=O)[C@@H]2C[C@@H](OC(=O)N3Cc4cccc(F)c4C3)CN2C1=O)C(C)(C)C [Compound 407, (2R,6S,13aS,14aR,16aS,Z)-6-(3-tert-butyl-3-methylureido)-14a-(cyclopropylsulfonylcarbamoyl)-5,16-dioxo-1,2,3,5,6,7,8,9,10,11,13a,14,14a,15,16,16a-hexadecahydrocyclopropa[e]pyrrolo[1,2-a][1,4]diazacyclopentadecin-2-yl 4-fluoroisoindoline-2-carboxylate]	< 100 nM	< 100 nM
O=C1N[C@]2(C(=O)NS(=O)(=O)C3CC3)C[C@H]2/C=C\CCC(F)(F)CC[C@H](NC(=O)C2(C(F)(F)F)CC2)C(=O)N2C[C@H](OC(=O)N3Cc4cccc(F)c4C3)C[C@@H]12 [Compound 408]	< 100 nM	< 100 nM
O=C1N[C@]2(C(=O)NS(=O)(=O)C3CC3)C[C@H]2/C=C\CCC(F)(F)CC[C@H](NC(=O)C2(C(F)(F)F)CC2)C(=O)N2C[C@H](OC(=O)N3Cc4ccccc4C3)C[C@@H]12 [Compound 409]	< 100 nM	< 100 nM
O=C(N[C@H]1CCCCC/C=C\[C@@H]2C[C@@]2(C(=O)NS(=O)(=O)C2CC2)NC(=O)[C@@H]2C[C@@H](OC(=O)N3Cc4ccc(F)cc4C3)CN2C1=O)OC1CCOCC1 [Compound 410]	< 100 nM	100 to 1000 nM

— patent US20090155209A1, “NOVEL MACROCYCLIC INHIBITORS OF HEPATITIS C VIRUS REPLICATION” (priority 2007, published 2009)
